{"source": "patent US20080280955A1", "about": "“Methods and compositions for screening and treatment of disorders of blood glucose regulation” (Perlegen Sciences, Inc., priority 2005, published 2008)", "origin": "cited, not measured here", "key": {"PPAR-gamma": {"biological_target": "T1, PPAR-gamma (Homo sapiens, UniProt P37231)", "T1 sequence (P37231 1-505)": "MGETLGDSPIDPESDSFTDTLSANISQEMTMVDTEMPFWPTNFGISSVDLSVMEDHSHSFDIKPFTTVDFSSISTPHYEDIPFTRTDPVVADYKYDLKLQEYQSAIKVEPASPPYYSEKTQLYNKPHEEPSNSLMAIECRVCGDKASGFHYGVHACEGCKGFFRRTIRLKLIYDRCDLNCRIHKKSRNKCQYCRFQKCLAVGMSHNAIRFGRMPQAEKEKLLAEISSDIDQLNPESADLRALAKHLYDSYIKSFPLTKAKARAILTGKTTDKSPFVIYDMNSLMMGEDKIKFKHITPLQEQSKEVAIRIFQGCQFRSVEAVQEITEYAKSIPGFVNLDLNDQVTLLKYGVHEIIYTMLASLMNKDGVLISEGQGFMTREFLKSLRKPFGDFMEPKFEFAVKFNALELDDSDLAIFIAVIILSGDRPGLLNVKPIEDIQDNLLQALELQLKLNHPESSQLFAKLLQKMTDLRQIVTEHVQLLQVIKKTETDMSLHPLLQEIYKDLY", "conditions": "context-specific, depends on cell type"}, "PPAR-alpha": {"biological_target": "T2, PPAR-alpha (Homo sapiens, UniProt Q07869)", "T2 sequence (Q07869 1-468)": "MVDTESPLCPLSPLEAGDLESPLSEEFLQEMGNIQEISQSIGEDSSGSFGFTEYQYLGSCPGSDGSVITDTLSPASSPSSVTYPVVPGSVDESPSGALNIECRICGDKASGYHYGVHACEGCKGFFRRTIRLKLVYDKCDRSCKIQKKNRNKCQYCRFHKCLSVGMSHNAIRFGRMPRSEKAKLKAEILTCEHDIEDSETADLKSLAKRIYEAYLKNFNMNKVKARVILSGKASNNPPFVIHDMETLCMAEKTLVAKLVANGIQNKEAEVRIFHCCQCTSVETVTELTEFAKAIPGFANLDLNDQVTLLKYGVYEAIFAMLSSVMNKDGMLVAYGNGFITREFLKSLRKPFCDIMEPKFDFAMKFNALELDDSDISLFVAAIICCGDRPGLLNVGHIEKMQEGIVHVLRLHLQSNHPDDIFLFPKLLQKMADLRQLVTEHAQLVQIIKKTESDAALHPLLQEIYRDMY"}, "PPAR-delta": {"biological_target": "T3, PPAR-delta (Homo sapiens, UniProt Q03181)", "T3 sequence (Q03181 1-441)": "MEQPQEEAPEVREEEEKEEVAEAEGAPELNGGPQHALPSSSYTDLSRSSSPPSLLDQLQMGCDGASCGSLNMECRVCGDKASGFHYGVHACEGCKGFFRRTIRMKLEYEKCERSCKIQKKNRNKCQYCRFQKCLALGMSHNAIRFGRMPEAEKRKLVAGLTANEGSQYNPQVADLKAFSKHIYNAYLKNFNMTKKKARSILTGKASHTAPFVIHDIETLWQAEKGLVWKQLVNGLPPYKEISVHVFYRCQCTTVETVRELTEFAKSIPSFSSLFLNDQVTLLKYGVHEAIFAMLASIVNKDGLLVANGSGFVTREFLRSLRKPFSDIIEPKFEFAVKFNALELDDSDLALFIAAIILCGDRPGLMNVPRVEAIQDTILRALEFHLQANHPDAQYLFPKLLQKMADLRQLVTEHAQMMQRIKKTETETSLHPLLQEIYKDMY"}}}
{"smiles": "O=C1NC(=O)C(Cc2ccc3cc(OCc4ccccc4F)ccc3c2)S1", "note": "(centres unmarked) [netoglitazone, 5-[{6-(2-fluorobenzyl)oxy-2-naphthyl}methyl]-2,4-thiazolidinedione]", "values": [{"measurement": "efficacy in lowering plasma glucose, insulin, and triglyceride levels", "setting": "compared with pioglitazone and troglitazone", "result": "more efficacious than pioglitazone and troglitazone"}, {"measurement": "potency relative to rosiglitazone", "setting": "compared with rosiglitazone", "result": "about three-fold"}, {"measurement": "behaviour at PPAR-gamma", "setting": "PPAR-gamma", "result": "full agonist of PPAR-gamma and as a partial agonist or antagonist in others"}, {"measurement": "modulation of PPAR-alpha", "setting": "PPAR-alpha", "result": "appears to modulate"}, {"measurement": "modulation of PPAR-delta", "setting": "PPAR-delta", "result": "appears to modulate"}]}
